Results: patent US6274715A, “Tricyclic erythromycin derivatives” (priority 1997, dated 2001)
≈ marks a conversion by molar mass, not a printed value. Where two headings read alike, the source gives them in different places.

What was measured:
Assay type in all cases: cell-based
[1] = tested on: PSEUDOMONAS AERUGINOSA K799/WT; test: In vitro antibacterial activity, MIC, BHI agar dilution; details: P. aeruginosa K799/WT, unit assumed
ESCHERICHIA COLI DC-2 = test: as above; details: E. coli DC-2, unit assumed
[2] = tested on: STAPHYLOCOCCUS AUREUS CMX 642A; test: as above; details: S. aureus CMX 642A, unit assumed
[3] = tested on: PSEUDOMONAS AERUGINOSA K799/61; test: as above; details: P. aeruginosa K799/61, unit assumed
[4] = tested on: KLEBSIELLA PNEUMONIAE ATCC 8045; test: as above; details: K. pneumoniae ATCC 8045, unit assumed
[5] = tested on: STAPHYLOCOCCUS AUREUS A5177; test: as above
[6] = tested on: ENTEROBACTER AEROGENES ATCC 13048; test: as above; details: E. aerogenes ATCC 13048, unit assumed
[7] = tested on: STAPHYLOCOCCUS EPIDERMIDIS 3519; details: S. epidermidis 3519; BHI agar; unit assumed
[8] = tested on: PSEUDOMONAS AERUGINOSA BMH10; test: In vitro antibacterial activity, MIC, BHI agar dilution; details: P. aeruginosa BMH10, unit assumed
[9] = tested on: STAPHYLOCOCCUS AUREUS A-5278; test: as above; details: S. aureus A-5278, unit assumed
[10] = tested on: PSEUDOMONAS AERUGINOSA DPHD-5263; test: as above; details: P. aeruginosa DPHD-5263, unit assumed
[11] = tested on: PSEUDOMONAS AERUGINOSA DPHD-2862; test: as above; details: P. aeruginosa DPHD-2862, unit assumed
PSEUDOMONAS CEPACIA 296I = test: as above; details: P. cepacia 296I, unit assumed
EN[…] ATCC 8043 = test: as above; details: E. faecium ATCC 8043, unit assumed
Procedure: (§1) Representative compounds of the present invention were assayed in vitro for antibacterial activity as follows: Twelve petri dishes containing successive aqueous dilutions of the test compound mixed with 10 mL of sterilized Brain Heart Infusion (BHI) agar (Difco 0418-01-5) were prepared. Each plate was inoculated with 1:100 (or 1:10 for slow-growing strains, such as Micrococcus and Streptococcus) dilutions of up to 32 different microorganisms, using a Steers replicator block. The inoculated plates were incubated at 35-37° C. for 20 to 24 hours. In addition, a control plate, using BHI agar containing no test compound, was prepared and incubated at the beginning and end of each test.
(§2) An additional plate containing a compound having known susceptibility patterns for the organisms being tested and belonging to the same antibiotic class as the test compound was also prepared and incubated as a further control, as well as to provide test-to-test comparability. Erythromycin A was used for this purpose.
(§3) After incubation, each plate was visually inspected. The minimum inhibitory concentration (MIC) was defmed as the lowest concentration of drug yielding no growth, a slight haze, or sparsely isolated colonies on the inoculum spot as compared to the growth control.

M[…] ATCC 9341 = test: as above; details: M. luteus ATCC 9341, unit assumed
Procedure: as §1, §2, §3

M[…] ATCC 4698 = test: as above; details: M. luteus ATCC 4698, unit assumed
Procedure: as §1, §2, §3

STR[…] 508 = test: as above; details: S. agalactiae CMX 508, unit assumed
Procedure: as §1, §2, §3

[12] = tested on: PROVIDENCIA STUARTII CMX 640; details: P. stuartii CMX 640; BHI agar; unit assumed
[13] = tested on: STREPTOCOCCUS PYOGENES 930; test: In vitro antibacterial activity, MIC, BHI agar dilution; details: S. pyogenes 930, unit assumed
[14] = tested on: STREPTOCOCCUS PYOGENES EES61; test: as above; details: S. pyogenes EES61, unit assumed
[15] = tested on: STAPHYLOCOCCUS AUREUS ATCC 6538P; test: as above; details: S. aureus ATCC 6538P, 35-37° C., 20 to 24 hours, unit assumed
[16] = tested on: STAPHYLOCOCCUS AUREUS CMX 553; test: as above; details: S. aureus CMX 553, unit assumed
[17] = tested on: STAPHYLOCOCCUS AUREUS NCTC10649M; test: as above; details: S. aureus NCTC10649M, unit assumed
[18] = tested on: STREPTOCOCCUS BOVIS A-5169; test: as above; details: S. bovis A-5169, unit assumed
ESCHERICHIA COLI JUHL = details: E. coli JUHL; BHI agar; unit assumed
ESCHERICHIA COLI KNK 437 = details: unit assumed
[19] = tested on: PSEUDOMONAS AERUGINOSA 5007; test: In vitro antibacterial activity, MIC, BHI agar dilution; details: P. aeruginosa 5007, unit assumed
CANDIDA ALBICANS CCH 442 = test: as above; details: C. albicans CCH 442, unit assumed
[20] = tested on: STAPHYLOCOCCUS AUREUS 1775; test: as above; details: S. aureus 1775, unit assumed
ESCHERICHIA COLI H560 = test: as above; details: E. coli H560, unit assumed
ESCHERICHIA COLI SS = test: as above; details: E. coli SS, unit assumed
[21] = tested on: STREPTOCOCCUS PYOGENES PIU 2548; test: as above; details: S. pyogenes PIU 2548, unit assumed

Row | SMILES | MIC [1] [µg/mL] | MIC [2] [µg/mL] | MIC [3] [µg/mL] | MIC [4] [µg/mL] | MIC [7] [µg/mL] | MIC [8] [µg/mL] | MIC [9] [µg/mL] | MIC [10] [µg/mL] | MIC [11] [µg/mL] | MIC (PSEUDOMONAS CEPACIA 296I) [µg/mL] | MIC (EN[…] ATCC 8043) [µg/mL] | MIC (M[…] ATCC 9341) [µg/mL] | MIC (M[…] ATCC 4698) [µg/mL] | MIC (STR[…] 508) [µg/mL] | MIC [12] [µg/mL] | MIC [13] [µg/mL] | MIC [14] [µg/mL] | MIC [15] [µg/mL] | MIC [16] [µg/mL] | MIC [17] [µg/mL] | other results
1 | CC[C@H]1OC(=O)[C@H](C)C(=O)[C@H](C)[C@@H](O[C@@H]2O[C@H](C)C[C@H](N(C)C)[C@H]2O)[C@](C)(OC)C[C@@H](C)C2=N[C@@H](Cc3ccccc3)CN3C(=O)O[C@@]1(C)[C@H]3[C@H]2C [Example 4] | > 100 | 0.78 (≈ 1.07 µM) | 1.56 (≈ 2.14 µM) | > 100 | 0.78 (≈ 1.07 µM) | > 100 | > 100 | > 100 | > 100 | > 100 | 0.1 (≈ 0.137 µM) | 0.1 (≈ 0.137 µM) | 0.39 (≈ 0.536 µM) | 0.005 (≈ 0.00687 µM) | > 100 | > 100 | 0.05 (≈ 0.0687 µM) | 0.2 (≈ 0.275 µM) | 0.78 (≈ 1.07 µM) | 0.78 (≈ 1.07 µM) | MIC (ESCHERICHIA COLI DC-2): 100 µg/mL (≈ 137 µM); MIC ([5]; S. aureus A5177, unit assumed): 0.2 µg/mL (≈ 0.275 µM); MIC [6]: 100 µg/mL (≈ 137 µM); MIC [18]: 0.02 µg/mL (≈ 0.0275 µM); MIC (ESCHERICHIA COLI JUHL): > 100 µg/mL; MIC (ESCHERICHIA COLI KNK 437; E. coli KNK 437, BHI agar): > 100 µg/mL; MIC [19]: > 100 µg/mL; MIC (CANDIDA ALBICANS CCH 442): 100 µg/mL (≈ 137 µM); MIC [20]: > 100 µg/mL; MIC (ESCHERICHIA COLI H560): 25 µg/mL (≈ 34.3 µM)
2 | CC[C@H]1OC(=O)[C@H](C)C(=O)[C@H](C)[C@@H](O[C@@H]2O[C@H](C)C[C@H](N(C)C)[C@H]2O)[C@](C)(OC)C[C@@H](C)C2=NC[C@@H](Cc3ccccc3)N3C(=O)O[C@@]1(C)[C@H]3[C@H]2C [Example 6] | 25 (≈ 34.3 µM) | 0.1 (≈ 0.137 µM) | 0.39 (≈ 0.536 µM) | 12.5 (≈ 17.2 µM) | 0.1 (≈ 0.137 µM) | 50 (≈ 68.7 µM) | > 100 | 12.5 (≈ 17.2 µM) | 100 (≈ 137 µM) | 50 (≈ 68.7 µM) | 0.1 (≈ 0.137 µM) | 0.02 (≈ 0.0275 µM) | 0.1 (≈ 0.137 µM) | 0.02 (≈ 0.0275 µM) | 100 (≈ 137 µM) | > 100 | 0.02 (≈ 0.0275 µM) | 0.1 (≈ 0.137 µM) | 0.2 (≈ 0.275 µM) | 0.1 (≈ 0.137 µM) | MIC ([5]; S. aureus A5177): 0.05 µg/mL (≈ 0.0687 µM); MIC (ESCHERICHIA COLI SS): 0.02 µg/mL (≈ 0.0275 µM); MIC [18]: 0.01 µg/mL (≈ 0.0137 µM); MIC (ESCHERICHIA COLI KNK 437): 6.2 µg/mL (≈ 8.52 µM); MIC [21]: 0.39 µg/mL (≈ 0.536 µM); MIC [19]: 100 µg/mL (≈ 137 µM); MIC (CANDIDA ALBICANS CCH 442): > 100 µg/mL; MIC [20]: > 100 µg/mL; MIC (ESCHERICHIA COLI H560): 3.1 µg/mL (≈ 4.26 µM)
